Test system: yeast genes (level of expressed mRNA)
Assay: DNA chip analysis of expressed mRNA of yeast genes after 2 h culture with a toxic chemical substance
Type: cell-based, Saccharomyces cerevisiae S288C
Description: Yeast (Saccharomyces cerevtisiae S288C (α SUC2mal mel gap2 CUP1)) were cultured at 25° C. on YPD medium (yeast extract 1%, polypepton 2%, glucose 2%). One of toxic chemical substances was added to the cell at logarithmic growth phase, and the cell was further cultured for two hours. Cell was cultured without any chemical substance in the same condition, and was used as control. Concentrations of the chemical substances were defined to inhibit the growth of the yeast but not lead to death.
After the completion of cultivation, the culture was centrifuged to collect the cells. To the cells, sodium acetate buffer (50 mM sodium acetate, 10 mM EDTA, 1% SDS) was added, and the mixture was shaken at 65° C. for five minutes, followed by returning to room temperature, and obtaining the supernatant, which procedure was repeated two times. To the supernatant, ½ amount of a solution of phenol/chloroform was added, and the mixture was centrifuged to give a supernatant, which was added with an equal amount of chloroform, and the mixture was centrifuged to give a supernatant. To the supernatant, an equal amount of isopropanol containing 0.3 M sodium acetate was added, and the mixture was allowed to stand at room temperature for 30 minutes, after which the mixture was centrifuged to give a sediment of the whole RNAs. Seventy % ethanol was added to the sediment, and the mixture was again centrifuged to give a sediment, which was then dried and dissolved in water. mRNA was isolated from the whole RNAs as followings. In view of the fact that a poly A chain is attached to the 3′ terminus of mRNA, a polynucleotide having a poly T structure which was immobilized on the surface of latex beads was used to trap the mRNA, and then the mRNA was washed and eluted with spine column (Oligotex-dT30<Super>mRNA Purification Kit, Takara). Reverse transcription of the mRNA was conducted with a reverse transcriptase (Super Script II Reverse Transcriptase; catalogue No. 18064-014, GibcoBRL) using fluorescence-labeled nucleotides to give cDNAs that were introduced with Cy3-dUTP or Cy5-dUTP during the reverse transcription.
The labeled cDNAs were dissolved in TE buffer (10 mM Tris-HCl/1 mM EDTA, pH8.0), and the solution was dropped on the DNA chip containing the whole genes of yeast (DNA Chip Research Inc. Japan) so that the cDNAs were hybridized on the DNA chip at 65° C. for over 12 hours. The fluoresces intensity of the DNA chip was read with a scanner, and the ratio relative to the fluorescence intensity resulting from the absence of chemical substance was estimated as the following, which is shown in Tables 1 to 9: [formula]
In the Tables, “Intensity” indicated in the rightmost column is a value of the level of expressed mRNA of each gene in control cells as divided by the average level of the expressions of the whole genes.

## CdCl2 [(2)]
Yeast gene YKL086W, ratio to control without chemical
  The level of expressed mRNA in the presence of chemical substance/: 1.1
Yeast gene YKL096W
  The level of expressed mRNA in the presence of chemical substance/The level of expressed mRNA in the absence of chemical substance: 0.6
Yeast gene YKL151C, ratio to control without chemical substance, 2 h culture
  The level of expressed mRNA in the presence of chemical substance/: 3.1
Yeast gene YKL153W, ratio to control without chemical substance, 2 h culture
  The level of expressed mRNA in the presence of chemical substance/: 1.4
Yeast gene YKL165C
  The level of expressed mRNA in the presence of chemical substance/The level of expressed mRNA in the absence of chemical substance: 2.0
Yeast gene YKL193C
  The level of expressed mRNA in the presence of chemical substance/The level of expressed mRNA in the absence of chemical substance: 0.8
Yeast gene YKL195W, ratio to control without chemical substance, 2 h culture
  The level of expressed mRNA in the presence of chemical substance/: 0.5
Yeast gene YKR009C
  The level of expressed mRNA in the presence of chemical substance/in the absence of chemical substance: 1.2
Yeast gene YKR091W, ratio to control without chemical
  The level of expressed mRNA in the presence of chemical substance/: 2.3
Yeast gene YLR054C, ratio to control without chemical substance, 2 h culture
  The level of expressed mRNA in the presence of chemical substance/: 1.5
Yeast gene YLR120C
  The level of expressed mRNA in the presence of chemical substance/The level of expressed mRNA in the absence of chemical substance: 1.9
Yeast gene YLR136C
  The level of expressed mRNA in the presence of chemical substance/The level of expressed mRNA in the absence of chemical substance: 9.0
Yeast gene YLR149C, ratio to control without chemical substance, 2 h culture
  The level of expressed mRNA in the presence of chemical substance/: 1.9
Yeast gene YLR152C, ratio to control without chemical substance, 2 h culture
  The level of expressed mRNA in the presence of chemical substance/: 1.3
Yeast gene YLR178C
  The level of expressed mRNA in the presence of chemical substance/The level of expressed mRNA in the absence of chemical substance: 6.9
Yeast gene YLR194C, ratio to control without chemical
  The level of expressed mRNA in the presence of chemical substance/: 2.2
Yeast gene YLR250W
  The level of expressed mRNA in the presence of chemical substance/The level of expressed mRNA in the absence of chemical substance: 1.0
Yeast gene YLR324W, ratio to control without chemical substance, 2 h culture
  The level of expressed mRNA in the presence of chemical substance/: 1.2
Yeast gene YLR327C
  The level of expressed mRNA in the presence of chemical substance/The level of expressed mRNA in the absence of chemical substance: 3.3
Yeast gene YLR350W, ratio to control without chemical substance, 2 h culture
  The level of expressed mRNA in the presence of chemical substance/: 1.9
Yeast gene YLR351C
  The level of expressed mRNA in the presence of chemical substance/in the absence of chemical substance: 1.4
Yeast gene YLR356W
  The level of expressed mRNA in the presence of chemical substance/The level of expressed mRNA in the absence of chemical substance: 2.9
Yeast gene YLR362W
  The level of expressed mRNA in the presence of chemical substance/The level of expressed mRNA in the absence of chemical substance: 1.2
Yeast gene YLR375W
  The level of expressed mRNA in the presence of chemical substance/in the absence of chemical substance: 1.5
Yeast gene YLR387C, ratio to control without chemical substance, 2 h culture
  The level of expressed mRNA in the presence of chemical substance/: 1.6
Yeast gene YLR391W
  The level of expressed mRNA in the presence of chemical substance/The level of expressed mRNA in the absence of chemical substance: 0.7
Yeast gene YLR429W
  The level of expressed mRNA in the presence of chemical substance/The level of expressed mRNA in the absence of chemical substance: 1.0
Yeast gene YLR460C, ratio to control without chemical substance, 2 h culture
  The level of expressed mRNA in the presence of chemical substance/: 2.1
Yeast gene YML117W, ratio to control without chemical substance, 2 h culture
  The level of expressed mRNA in the presence of chemical substance/: 2.2
Yeast gene YMR004W
  The level of expressed mRNA in the presence of chemical substance/The level of expressed mRNA in the absence of chemical substance: 0.9
Yeast gene YMR009W, ratio to control without chemical substance, 2 h culture
  The level of expressed mRNA in the presence of chemical substance/: 1.9
Yeast gene YMR067C, ratio to control without chemical substance, 2 h culture
  The level of expressed mRNA in the presence of chemical substance/: 0.9
Yeast gene YMR090W, ratio to control without chemical substance, 2 h culture
  The level of expressed mRNA in the presence of chemical substance/: 9.5
Yeast gene YMR094W
  The level of expressed mRNA in the presence of chemical substance/The level of expressed mRNA in the absence of chemical substance: 0.5
Yeast gene YMR095C, ratio to control without chemical
  The level of expressed mRNA in the presence of chemical substance/: 2.0
Yeast gene YMR097C, ratio to control without chemical substance, 2 h culture
  The level of expressed mRNA in the presence of chemical substance/: 1.0
Yeast gene YMR102C, ratio to control without chemical substance, 2 h culture
  The level of expressed mRNA in the presence of chemical substance/: 2.9
Yeast gene YMR104C
  The level of expressed mRNA in the presence of chemical substance/The level of expressed mRNA in the absence of chemical substance: 14.3
Yeast gene YMR107W, ratio to control without chemical substance, 2 h culture
  The level of expressed mRNA in the presence of chemical substance/: 3.9
Yeast gene YMR180C, ratio to control without chemical substance, 2 h culture
  The level of expressed mRNA in the presence of chemical substance/: 0.9
Yeast gene YMR184W, ratio to control without chemical substance, 2 h culture
  The level of expressed mRNA in the presence of chemical substance/: 5.4
Yeast gene YMR191W, ratio to control without chemical substance, 2 h culture
  The level of expressed mRNA in the presence of chemical substance/: 2.4
Yeast gene YMR219W
  The level of expressed mRNA in the presence of chemical substance/The level of expressed mRNA in the absence of chemical substance: 1.1
Yeast gene YMR226C
  The level of expressed mRNA in the presence of chemical substance/The level of expressed mRNA in the absence of chemical substance: 1.8
Yeast gene YMR267W
  The level of expressed mRNA in the presence of chemical substance/in the absence of chemical substance: 1.8
Yeast gene YMR275C
  The level of expressed mRNA in the presence of chemical substance/The level of expressed mRNA in the absence of chemical substance: 0.7
Yeast gene YMR276W
  The level of expressed mRNA in the presence of chemical substance/The level of expressed mRNA in the absence of chemical substance: 1.4
Yeast gene YMR278W
  The level of expressed mRNA in the presence of chemical substance/in the absence of chemical substance: 1.7
Yeast gene YMR293C
  The level of expressed mRNA in the presence of chemical substance/in the absence of chemical substance: 1.5
Yeast gene YMR295C, ratio to control without chemical substance, 2 h culture
  The level of expressed mRNA in the presence of chemical substance/: 1.0
Yeast gene YMR314W
  The level of expressed mRNA in the presence of chemical substance/The level of expressed mRNA in the absence of chemical substance: 1.2
Yeast gene YMR316W, ratio to control without chemical substance, 2 h culture
  The level of expressed mRNA in the presence of chemical substance/: 2.9
Yeast gene YNL006W
  The level of expressed mRNA in the presence of chemical substance/The level of expressed mRNA in the absence of chemical substance: 2.1
Yeast gene YNL007C
  The level of expressed mRNA in the presence of chemical substance/The level of expressed mRNA in the absence of chemical substance: 2.4
Yeast gene YNL044W, ratio to control without chemical substance, 2 h culture
  The level of expressed mRNA in the presence of chemical substance/: 0.9
